# Measurements as given in patent USRE43688E1 (The Regents of the University of California, priority 2006, dated 2012).
# Values joined by “and” are separate entries in the source; they are usually repeats but may differ in a detail not shown here. Equal values may be shown once.
# Tests used:
# 5HT1a receptor [1] = target: T1, 5HT1a receptor (Mus musculus, UniProt Q64264); experiment: trans-^18F-mefway binding in transgenic mouse models of Alzheimer's disease; conditions: transgenic mouse models of Alzheimer's disease (data not shown)
# T1 construct: from tissue
# T1 sequence (Q64264 1-421): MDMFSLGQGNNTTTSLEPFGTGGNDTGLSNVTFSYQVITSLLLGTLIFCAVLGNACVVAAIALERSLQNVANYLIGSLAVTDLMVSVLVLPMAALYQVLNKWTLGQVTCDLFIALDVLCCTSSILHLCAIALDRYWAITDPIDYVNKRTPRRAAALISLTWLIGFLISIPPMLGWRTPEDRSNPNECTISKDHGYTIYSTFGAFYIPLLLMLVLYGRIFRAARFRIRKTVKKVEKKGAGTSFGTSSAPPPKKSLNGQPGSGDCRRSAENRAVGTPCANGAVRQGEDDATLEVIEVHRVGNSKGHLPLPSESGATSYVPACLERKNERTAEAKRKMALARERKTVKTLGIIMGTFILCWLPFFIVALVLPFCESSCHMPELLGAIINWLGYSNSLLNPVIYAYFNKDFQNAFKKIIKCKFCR
# Text: (§1) Binding of trans-^18F-mefway was evident in several 5HT1A receptor-rich regions, including hippocampus and cortex. Using cerebellum as a reference region, rat brain slices gave ratios of hippocampus/cerebellum=55 and cortex/cerebellum=17. Studies in transgenic mouse models of Alzheimer's disease show >90% loss in 5HT1a receptor binding (data not shown).
# 5HT1A receptor [2] = target: T2, 5HT1A receptor (Rattus norvegicus, UniProt P19327); experiment: Rodent studies with trans-^18F-mefway, rat brain slices; assay type: binding; conditions: cerebellum as reference region
# T2 construct: from tissue; host or cells: 10 um horizontal brain slices of Sprague-Dawley rats
# T2 sequence (P19327 1-422): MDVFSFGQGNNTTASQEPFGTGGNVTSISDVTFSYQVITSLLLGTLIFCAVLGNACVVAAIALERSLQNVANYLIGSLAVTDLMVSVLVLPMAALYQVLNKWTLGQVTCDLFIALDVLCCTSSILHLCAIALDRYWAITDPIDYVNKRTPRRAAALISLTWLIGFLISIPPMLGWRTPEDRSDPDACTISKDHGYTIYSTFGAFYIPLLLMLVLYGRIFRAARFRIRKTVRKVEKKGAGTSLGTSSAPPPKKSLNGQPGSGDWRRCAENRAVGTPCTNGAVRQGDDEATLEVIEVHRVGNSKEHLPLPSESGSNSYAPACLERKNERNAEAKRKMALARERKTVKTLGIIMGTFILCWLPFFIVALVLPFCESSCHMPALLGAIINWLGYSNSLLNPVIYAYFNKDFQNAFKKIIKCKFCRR
# Text: as §1
# 5HT1A receptor [3] = target: T2, 5HT1A receptor; experiment: Competition study of serotonin with ^18F-mefway in rat brain slices; assay type: binding
# Description: Male Sprague-Dawley rats (200-250 g) were anesthetized and decapitated, the brain was rapidly removed and frozen in isopentane at −20° C. Horizontal slices were cut 10 μm thick using a Leica 1850 cryotome. Slices contained the regions of cortex, hippocampus, and other regions known to contain 5-HT1A receptors. Brain slices were stored at −20° C. Brain slices were preincubated in 50 mM Tris-HCl buffer (pH 7.4) for 10 mins. The slices were then incubated with 130-148 kBq/mL of ^18F-mefway at 37° C. for 1 hr. […] After incubation, slides were washed twice (one minute for both washes) with ice-cold buffer. Slides were then quickly dipped in cold deionized water, air dried, and exposed to a phosphor screen for 24 hours. The autoradiographs were generated using the Phosphor Cyclone Imager (Packard Instruments Co., Boston Mass.). The amount of binding was evaluated in digital light units (DLU/mm^2) using OptiQuant accusation and analysis program (Packard Instruments Co.) Autoradiographs were quantified using a computer-based image analysis system (OptiQuant Version 4.0 Packard Instruments Co., Boston Mass.).
# 5HT1A receptor [4] = target: T2, 5HT1A receptor; experiment: Competitive binding assay in rat brain slices using ^18F-mefway as the radioligand (autoradiography); conditions: 167 kBq/mL ^18F-mefway, 37° C. 1 hour, measured autoradiographically in the hippocampus (FIG. 5), read-out: Binding affinity (IC50) against ^18F-mefway
# Description: In vitro binding affinity of mefway was measured in rat brain slices labeled with fluorine-18. The brains from Sprague-Dawley rats were extracted and frozen in isopentane at −20° C. Several 10 μm thick horizontal rat brain slices were pre-incubated at room temperature for 15 minutes in 50 mM Tris-HCl buffer (pH 7.4). […] After incubation slides were washed twice with cold buffer for one minute, dipped in cold water, air dried, and exposed to phosphor storage screens for 24 hours. Autoradiographs were generated using the Packard Phosphor Cyclone Imager, and the apposed phosphor screens were read by the Cyclone Storage Phosphor System. […] Binding affinity (IC50) was calculated using KELL program (BioSoft Inc).
# [5] = Blood analysis of the monkey PET study (plasma parent and metabolites); assay type: in vivo, Rhesus monkey
# Description: A blood analysis of the monkey PET study subsequent to administration of ^18F-mefway was performed to observe levels of breakdown in the blood similar to methods described for ^18F-fallypride. Venous whole blood (approx. 1 mL) was obtained at various time-points (5, 10, 15, 30, 45, 60, 90, 120, 150 and 180 min) during the course of the PET study. The samples were centrifuged in a Microfuge centrifuge (Eppendorf Centrifuge 5415C) at 12,000 rpm for 5 min. Plasma, 0.6 mL was separated from each sample and 0.1 mL was counted from each sample. […]. The remaining 0.5 mL of plasma at each time point was combined with 0.1 mL NaHCO3 and mixed well and subsequently extracted with 0.4 mL of ethyl acetate. The ethyl acetate was separated and 0.1 mL of ethyl acetate layer and 0.1 mL of aqueous layer were counted for analysis of ^18F-mefway in blood. […] The developed TLC plate was dried, apposed overnight to phosphor screen, and were read using the Phosphor Cyclone Imager (Packard Instruments Co., Boston Mass.). The amount of ^18F-mefway was evaluated in digital light units (DLU/mm^2) using Opti-Quant acquisition and analysis program (Packard Instruments Co.). All blood samples were counted for radioactivity in a Packard Gamma Counter 5000 series.
# [6] = Lipophilicity (log P) by partitioning between n-octanol and Tris-HCl buffer; assay type: physicochemical; conditions: n-octanol and 50 M Tris-HCl (pH 7.4) buffer
# Description: Lipophilicity (log P) was measured to evaluate lipid solubility of ^18F-mefway. The lipophilicity was measured by partitioning between n-octanol and […] Tris-HCl (pH 7.4) buffer. Into three tubes 2 mL of n-octanol and 2 mL of buffer were added and vortexed. To this mixture 370 kBq of ^18F-mefway was added. The mixture was again vortexed and allowed to settle. The layers were separated and the aqueous layer was centrifuged again to remove n-octanol contamination. An aliquot of both layers was counted for concentration of ^18F-mefway using the Cobra Quantum well counter (Packard Instruments Co., Boston, Mass.). Log P was taken as the concentration of ^18F-mefway in n-octanol over concentration of buffer.
# 5-HT1A receptors = target: T3, 5-HT1A receptors (Macaca mulatta, UniProt F7GIU0); experiment: Monkey PET study with ^18F-mefway; assay type: in vivo, Rhesus monkey
# T3 construct: from tissue; host or cells: brain of a living anaesthetised Rhesus monkey (PET)
# T3 sequence (F7GIU0 1-421): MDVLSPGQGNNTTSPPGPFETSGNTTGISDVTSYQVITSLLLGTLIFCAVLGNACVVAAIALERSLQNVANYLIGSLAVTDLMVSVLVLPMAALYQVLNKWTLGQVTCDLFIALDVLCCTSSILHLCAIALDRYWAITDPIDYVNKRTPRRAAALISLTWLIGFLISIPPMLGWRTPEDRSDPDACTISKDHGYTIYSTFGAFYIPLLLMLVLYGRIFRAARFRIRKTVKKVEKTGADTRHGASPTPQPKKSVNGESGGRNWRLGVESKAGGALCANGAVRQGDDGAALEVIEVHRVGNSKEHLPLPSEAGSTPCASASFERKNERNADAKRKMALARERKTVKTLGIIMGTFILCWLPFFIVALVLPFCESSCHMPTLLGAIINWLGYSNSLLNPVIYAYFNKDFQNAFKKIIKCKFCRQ
# Description: In vivo studies were performed in a Rhesus monkey. The monkey was anesthetized using ketamine (10 mg/kg) and xylazine (0.5 mg/kg) and maintained on 1-1.5% isoflurane. Two intravenous catheters were placed, one on each arm, for administration of the radiopharmaceutical and for obtaining blood samples during the study. Vital signs of the money were monitored carefully. […] The head of the animal was placed in the gantry of an ECAT EXACT HR+PET scanner and positioned in place with the use of adhesive tape. A transmission scan using a Ge-68/Ga-68 rod source was acquired prior to administration of the radiopharmaceutical to correct for tissue attenuation of the coincident radiation. A dynamic sequence of scans was acquired for 180 minutes after administration of 130 MBq of ^18F-Mefway intravenously (specific activity=74-111 GBq/μmol). Data in the final form were expressed in units of percent-injected dose/mL or kBq/mL. Areas showing maximal radioligand binding in the frontal cortex, temporal cortex, dorsal raphe and other braain regions were delineated in the images. The PET images were coregistered with an MRI image template of the rhesus monkey in order to provide anatomical detail as reported previously. This MRI template of the rhesus (Macaca mulatta) brain is an average of 6 monkeys with T1-weighted MR scans. PET image summed till 120 min duration was used for the coregistration. Coregistration of the PET-MR data was carried out by VINCI program (CPS Innovations, Inc.). Time activity curves were obtained for all of these regions.
# [7] = Defluorination of ^18F-mefway in in vitro and in vivo experiments; conditions: numerous in vitro and in vivo experiments
compound,measurement,setting,value
COc1ccccc1N1CCN(CCN(C(=O)C2CCC(CF)CC2)c2ccccn2)CC1 (stereo not drawn) [trans-^18F-mefway],loss in 5HT1a receptor binding,5HT1a receptor [1],> 90%
same,cortex/cerebellum ratio,5HT1A receptor [2],17
same,hippocampus/cerebellum ratio,5HT1A receptor [2],55
NCCc1c[nH]c2ccc(O)cc12 [serotonin],displaced ^18F-mefway binding in cortex,5HT1A receptor [3]; cortex,> 70%
same,displaced ^18F-mefway binding in hippocampus,5HT1A receptor [3]; hippocampus,> 85%
"COc1ccccc1N1CCN(CCN(C(=O)C2CCC(CF)CC2)c2ccccn2)CC1 (stereo not shown) [mefway, N-{2-[4-(2-methoxyphenyl)piperazinyl]ethyl}-N-(2-pyridyl)-N-(4-fluoromethylcyclo-hexane)-carboxamide]",IC50,5HT1A receptor [4],32.1 nM and 25.7 nM
O=C(O)C1CCC(C[18F])CC1 (stereo not shown) [^18F-4-fluoromethylcyclohexane carboxylic acid],plateau of acid metabolite (aqueous fraction) in plasma,[5]; after 50 mins post-injection,50-60%
"COc1ccccc1N1CCN(CCN(C(=O)C2CCC(C[18F])CC2)c2ccccn2)CC1 (stereo not shown) [^18F-mefway, N-{2-[4-(2-methoxyphenyl)piperazinyl]ethyl}-N-(2-pyridyl)-N-(4-^18F-fluoromethylcyclohexane)carboxamide]",Lipophilicity (Log P),[6],2.62±0.06
same,^18F-mefway remaining unmetabolized in plasma,[5]; 3 hours post injection,approximately 30%
same,raphe ratio (to cerebellum),5-HT1A receptors; PET,3.5
same,"time of peak of ratios, second group of regions",5-HT1A receptors; PET,around 80 mins
same,ratio of hippocampus to cerebellum,"5-HT1A receptors; PET, at pseudoequilibrium",exceeded 9
same,time to reach uptake level in various regions,"5-HT1A receptors; PET, brain uptake after i.v. administration",less than 2 mins
same,"hippocampus to cerebellum ratio, peak","5-HT1A receptors; PET, peak",9.7
same,uptake level in various brain regions,"5-HT1A receptors; PET, reached in less than 2 mins",greater than 0.03 % injected dose/mL
same,"ratio to cerebellum, thalamus, striatum and raphe","5-HT1A receptors; PET, third group of regions",2-3.5
same,initial activity in the cerebellum still present,5-HT1A receptors; after 3 hrs,about 6%
same,vital signs of the monkey,5-HT1A receptors; anesthetized Rhesus monkey during PET study,did not show any unusual deviations from baseline values
same,hippocampus to cerebellum ratio at end of scan,5-HT1A receptors; end of the 3 hr scan,8.4
same,initial activity in the hippocampus still specifically bound,5-HT1A receptors; end of the 3 hr scan,approx 60%
same,time of approach to pseudoequilibrium / plateau of ratio in receptor-rich regions,"5-HT1A receptors; hippocampus (and cortical hot spot), PET, 130 MBq i.v.",around 80 mins
same,defluorination,[7],virtually no deflourination
